Earlier results on three compounds are cited in PMC4728427, “Mechanism of allosteric activation of TMEM16A/ANO1 channels by a commonly used chloride channel blocker” (British Journal of Pharmacology, 2016).

In general, EC50 refers to the concentration needed to bring the measured effect to its halfway point. One may read the IC50 as the concentration needed to halve the response being measured.

The test system of one series is CaCC currents (TMEM16A). Also on record: method as in Namkung et al., 2011b. The settings on record: ref Namkung et al., 2011b; read-out: EC50 activation of CaCC currents; cited from earlier work.
In series [1] the test system is TMEM16A. Also on record: method as in Oh et al., 2013. The settings on record: ref Oh et al., 2013; read-out: IC50 TMEM16A inhibition; cited from earlier work.
The next series relates to ClC‐2. Details: method as in Oh et al., 2013. The settings on record: ref Oh et al., 2013; cited from earlier work.
The next series relates to CFTR. Details: method as in Oh et al., 2013. The settings on record: ref Oh et al., 2013; cited from earlier work.
Another series has as its system bestrophin 1. Details: method as in Oh et al., 2013. The settings on record: ref Oh et al., 2013; cited from earlier work.
Series [2] deals with head and neck squamous cell carcinoma. Details: method as in Duvvuri et al., 2012. To be noted: ref Duvvuri et al., 2012; cited from earlier work.
Series [3] concerns TMEM16A. Also on record: method as in Namkung et al., 2011a. The settings on record: ref Namkung et al., 2011a; read-out: IC50 TMEM16A inhibition; cited from earlier work.

Read-outs that look alike come from different tables or passages of the source.

Consider `COCCN(C(=O)c1cc(OC)c(OC)c(OC)c1)c1nc(-c2ccccc2)cs1` [Eact], for which, in the series on CaCC currents (TMEM16A), the EC50 was 3000 to 6000 nM.

As to `COc1cc(Nc2ccc([N+](=O)[O-])cc2C(=O)O)cc2ccccc12` [MONNA], in the series with TMEM16A [1], the IC50 is about 1000 nM. Further, in the series on ClC‐2, the “interaction with ClC‐2” value is “does not interact”. Further, the “interaction with CFTR” value in the series with CFTR is listed as “does not interact”. Besides, the “interaction with bestrophin 1” value in the series with bestrophin 1 was “does not interact”.

Regarding `CCc1c(C)nc(SCC(=O)Nc2nc(-c3ccc(OC)cc3)cs2)[nH]c1=O` [T16inh‐A01], in series [2], the tumour growth result is reported as “reduced tumour growth”. For the same compound, in the series with TMEM16A [3], the IC50 was about 1000 nM.
